Source: US20190248834A1, “ENDOMORPHIN-2, TETRAPEPTIDE DERIVATIVES THEREOF, AND USES THEREOF” (priority 2016, published 2019)
Non-standard residues stand in square brackets, D forms with d. pGlu = O=C1CC[C@@H](C(=O)O)N1

Experiments:
Type in all cases: in vivo, human
[1] = tested on: intense headaches; experiment: Example 33: analgesic effect on recurring headaches, topical; settings: 0.8% (w/v) in EP73, topical
Protocol: A subject with intense headaches after several hours of using a computer in their work as a real estate agent, topically applied to the forehead and temporal areas a composition containing 0.8% (w/v) of N-Ac-Tyr-Pro-Phe-Phe-NH2 (SEQ ID NO: 23)0 in EP73, formulated as described in Example 2. […] Such headaches, occurring 1-2 times weekly, were treated in the same manner over a 2 month interval, with headache pain being relieved each time.

[2] = tested on: back neck pain after cervical implant; experiment: Example 90: analgesic effect on post-surgery pain and discomfort, topical; settings: 1% (w/v) in WEP442, topical
Excerpt: A subject had painful discomfort of their back neck for 2 years caused by a surgical titanium implant of the 7th cervical vertebra 2 years earlier. During the past years, the pain and discomfort had been improved from occasional treatments with acupuncture and massage therapy. However, such treatments provided only short term relief of pain and discomfort, usually one or two pain free days after each treatment.
On one afternoon, pain and discomfort suddenly developed. The subject topically applied a composition containing 1% (w/v) of N-Ac-Tyr-Pro-Phe-Phe-NH2 (SEQ ID NO: 23) in WEP442 solution to skin of their back neck area. […] The subject was free of pain and discomfort for at least 12 hours (4+ effect).

[3] = tested on: psoriatic arthritis in the joints of both feet; experiment: Example 62: analgesic efficacy of psoriatic arthritis, feet, topical; settings: 1% (w/v) in WEP442, topical
Protocol: A subject with plague psoriasis had painful psoriatic arthritis in the joints of both feet for the past 10-12 years. Topical application of a composition containing 1% (w/v) of N-Ac-Tyr-Pro-Phe-Phe-NH2 (SEQ ID NO: 23) in WEP442 relieved the pain so that it was undetectable for 6-8 hours. Daily topical applications of the formulation for 5 days provided the same relief.

[4] = tested on: arthritic pain in upper back; experiment: Example 20: analgesic effect on arthritic pain of upper back, topical
Protocol: A subject had arthritic pain in their upper back and associated paresthesia of their fingers, described as feelings of tingling and “pins and needles”. These symptoms had been present for about 1 year. […] Pain relief lasted for 10-12 hours. […] Repeated applications for 10-12 days gave the same results.

[5] = tested on: chronic subpatellar and peripheral patellar pain; experiment: Example 8: analgesic effect on knee pain, topical
Excerpt: A subject had chronic subpatellar and peripheral patellar pain in their knees.
The subject topically applied an anhydrous composition containing 0.7% (w/v) N-Ac-Tyr-Pro-Phe-Phe-NH2 (SEQ ID NO: 23) in EP73, formulated as described in Example 2, at bedtime. The next morning, they observed about 50% relief of pain. The subject topically re-applied the same composition under a plastic film wrap for one hour, after which they observed about 95% relief of pain.

[6] = tested on: severe migraine; experiment: Example 12: analgesic effect on severe migraine headache, topical; settings: 1% (w/v) in WEP442, topical
Protocol: One day, at approximately 8 AM, visual aura and pain in the frontal scalp, forehead and frontal sinuses began and became very severe within 5-10 minutes. Thereafter, the subject topically applied a composition containing 1% (w/v) N-Ac-Tyr-Pro-Phe-Phe-NH2(SEQ ID NO: 23) in WEP442 to the involved area. […] Three (3) days later they remained free of any migraine headache and symptoms.

[7] = tested on: mechanically induced skin pain; experiment: Example 91: experimentally induced skin pain (needle roller), topical; settings: 1% (w/v) in WEP442, topical before and after wounding
Excerpt: A subject, rolled onto their left forearm with forceful pressure a roller having many tiny stainless steel needles 1 mm in length, which penetrated through the epidermis causing sharp pain as well as punctate bleeding.

[8] = tested on: knee pain; experiment: Example 42: analgesic effect on knee pain following twisting of leg, topical; settings: 1% (w/v) in WEP442, topical
Excerpt: A subject, twisted their left leg during work on building construction, causing substantial pain in the left knee. The pain persisted into the late evening, preventing them from falling asleep.

[9] = tested on: psoriatic arthritis; experiment: Example 73: analgesic effect on psoriatic arthritis of hands, fingers and ankles, topical; settings: 0.5% (w/v) in WEP442, topical
Excerpt: A subject had psoriatic arthritis of the hands and finger joints and ankle joints for 4 years.

[10] = tested on: headache; experiment: Example 72: analgesic effect on migraine headache, topical; settings: 0.5% (w/v) in WEP442, topical
Excerpt: A subject who suffered from migraine headaches, woke up one morning with a headache, the type of which was uncertain. They topically applied to their forehead, periocular and temporal areas a composition containing 0.5% (w/v) of N-Pg-Tyr-Pro-Phe-Phe-NH2 (SEQ ID NO: 44) in WEP442.

[11] = tested on: migraine; experiment: Example 80: analgesic effect on pain and nausea from migraine headache, topical; settings: 0.5% (w/v) in WEP442, topical at onset of symptoms
Excerpt: A subject with a history of recurrent attacks of migraine, was provided a solution composition containing 0.5% (w/v) of N-Pg-Tyr-Pro-Phe-Phe-NH2 (SEQ ID NO: 44) in WEP442 and a solution composition containing 0.5% (w/v) of N-Ac-Tyr-Pro-Phe-Phe-NHNH2 (SEQ ID NO: 31) in WEP442. […] Sensations of nausea that might have lingered went away after several minutes following a second topical application.

[12] = tested on: restless leg syndrome; experiment: Example 75: treatment of restless leg syndrome, topical; settings: 1% (w/v) in WEP442, topical to legs after an episode
Excerpt: Restless leg syndrome (RLS) is a disorder in which involuntary movements of the legs occur during the sleeping hours. A subject, presented with RLS for a duration of about 4 years. The disorder in the subject had not responded to therapy with opiates, nor to a benzodiazepine medication.

[13] = tested on: knee pain and foot pain; experiment: Example 71: analgesic effect on foot sprain and knee pain following patella fracture, topical; settings: 0.5% (w/v) in WEP442, topical
Excerpt: A subject suffered severe pain in their left knee and in the arch of their left foot following a forward fall to a wooden floor. Diagnoses of multiple fractures of the patella and a bruised foot were made by x-ray. Surgical repair of the knee was done, following which severe knee pain and acute pain in the arch of the foot persisted. […] Topical applications 3-4 times daily allowed the subject to pursue rehabilitation procedures pain free.

Q: For `CC(=O)N[C@@H](Cc1ccc(O)cc1)C(=O)N1CCC[C@H]1C(=O)N[C@@H](Cc1ccccc1)C(=O)N[C@@H](Cc1ccccc1)C(N)=O` [N-Ac-Tyr-Pro-Phe-Phe-NH2], which pain relief [1] is on record?
A: Its pain relief is “Complete headache relief”.

Q: What about the “time to pain relief” value [1] of the same compound?
A: Its value is ≤ 1 min.

Q: What about the analgesic effect grade [2] of the same compound?
A: The analgesic effect grade was 4+ (4+ (90-100%): complete relief or eradication of pain for more than 4 hours).

Q: And the “duration free of pain and discomfort” value [2]?
A: Its value is “at least 12 hours”.

Q: What about the pain relief [2] of the same compound?
A: Its pain relief is “the pain and discomfort disappeared”.

Q: What about the “time to pain relief” value [2] of the same compound?
A: The value was “about 5 minutes”.

Q: What about the “duration of pain relief” value [3] of the same compound?
A: Its value is 6 to 8 h.

Q: And the pain relief [3]?
A: The pain relief was “undetectable”.

Q: What about the pain relief ([4]; 1% (w/v) in WEP442, daily topical to upper back) of the same compound?
A: Its pain relief is “relieved the upper back pain completely”.

Q: And the “duration of pain relief” value ([4]; 1% (w/v) in WEP442, topical)?
A: The value was 10 to 12 h.

Q: What about the “time to pain relief” value ([4]; 1% (w/v) in WEP442, topical) of the same compound?
A: Its value is 3 to 4 min.

Q: What about the “paresthesia of the fingers” value ([4]; 1% (w/v) in WEP442, topical to upper back) of the same compound?
A: Its value is “persisted without any discernible change”.

Q: What about the relief of pain ([5]; 0.7% (w/v) in EP73, re-applied under plastic film wrap for one hour) of the same compound?
A: The relief of pain was “about 95%”.

Q: And the relief of pain ([5]; 0.7% (w/v) in EP73, topical at bedtime, next morning)?
A: Its relief of pain is “about 50%”.

Q: What about the “relief of migraine pain and all other symptoms” value [6] of the same compound?
A: The value was “suddenly disappeared completely”.

Q: What about the “time free of migraine headache and symptoms” value [6] of the same compound?
A: The value was ≥ 3 days.

Q: What about the “time to pain relief” value [6] of the same compound?
A: The value was 6 to 7 min.

Q: What about the “effect on sharp punctate pain” value [7] of the same compound?
A: The value was “did not prevent nor relieve the sharp punctate pain”.

Q: What about the pain relief [8] of the same compound?
A: Its pain relief is “complete relief of pain”.

Q: What about the recurrence [8] of the same compound?
A: The recurrence was “pain free the next morning and thereafter”.

Q: And the “time to pain relief” value [8]?
A: Its value is “less than 1 minute”.

Q: And the “duration of pain relief” value [9]?
A: The value was “approximately 6 hours”.

Q: What about the pain relief [9] of the same compound?
A: The pain relief was “almost complete relief of pain”.

Q: For “N-Pg-Tyr-Pro-Phe-Phe-NH2 ([pGlu]YPFF-NH2; SMILES NC(=O)[C@H](Cc1ccccc1)NC(=O)[C@H](Cc1ccccc1)NC(=O)[C@@H]1CCCN1C(=O)[C@H](Cc1ccc(O)cc1)NC(=O)[C@@H]1CCC(=O)N1)”, which headache relief [10] is on record?
A: The headache relief was “promptly relieved and did not return”.

Q: And the pain relief [11]?
A: The pain relief was “complete relief of pain”.

Q: And the involuntary leg movement [12]?
A: The involuntary leg movement was “completely prevented further involuntary leg movement”.

Q: What about the “duration of pain relief” value [13] of the same compound?
A: The value was “more than 6 hours”.

Q: What about the pain relief [13] of the same compound?
A: Its pain relief is “immediate and complete relief of knee pain and foot pain”.
